pIC50: −log10 of the molar value. Where two headings read alike, the source gives them in different places.
Legend:
CYP2D6 = CYP2D6 (Homo sapiens, UniProt P10635); experiment: CYP2D6 inhibition assay, human liver microsomes, dextromethorphan probe (cocktail); details: Table 6
CYP2A6 [1] = target: T1, CYP2A6 (Homo sapiens, UniProt P11509); details: read-out: IC50 against CYP2A6; Table 5, alkyne linker agents; pooled human liver microsomes, coumarin […]
T1 sequence (P11509 1-494): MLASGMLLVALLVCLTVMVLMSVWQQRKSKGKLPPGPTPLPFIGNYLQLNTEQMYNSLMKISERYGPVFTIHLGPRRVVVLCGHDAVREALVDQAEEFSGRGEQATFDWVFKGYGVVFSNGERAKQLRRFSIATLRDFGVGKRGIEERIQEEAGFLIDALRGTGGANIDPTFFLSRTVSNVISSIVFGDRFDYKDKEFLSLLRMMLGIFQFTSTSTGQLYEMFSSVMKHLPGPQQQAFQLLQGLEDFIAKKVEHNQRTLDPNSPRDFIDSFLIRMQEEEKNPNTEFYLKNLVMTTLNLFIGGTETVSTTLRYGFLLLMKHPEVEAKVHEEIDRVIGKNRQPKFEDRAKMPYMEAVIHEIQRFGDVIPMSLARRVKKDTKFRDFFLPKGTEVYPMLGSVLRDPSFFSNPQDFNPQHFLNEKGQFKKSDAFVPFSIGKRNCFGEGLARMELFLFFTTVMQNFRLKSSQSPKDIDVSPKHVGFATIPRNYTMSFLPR

CYP2C8 = target: T2, CYP2C8 (Homo sapiens, UniProt P10632); details: Table 6
T2 sequence (P10632 1-490): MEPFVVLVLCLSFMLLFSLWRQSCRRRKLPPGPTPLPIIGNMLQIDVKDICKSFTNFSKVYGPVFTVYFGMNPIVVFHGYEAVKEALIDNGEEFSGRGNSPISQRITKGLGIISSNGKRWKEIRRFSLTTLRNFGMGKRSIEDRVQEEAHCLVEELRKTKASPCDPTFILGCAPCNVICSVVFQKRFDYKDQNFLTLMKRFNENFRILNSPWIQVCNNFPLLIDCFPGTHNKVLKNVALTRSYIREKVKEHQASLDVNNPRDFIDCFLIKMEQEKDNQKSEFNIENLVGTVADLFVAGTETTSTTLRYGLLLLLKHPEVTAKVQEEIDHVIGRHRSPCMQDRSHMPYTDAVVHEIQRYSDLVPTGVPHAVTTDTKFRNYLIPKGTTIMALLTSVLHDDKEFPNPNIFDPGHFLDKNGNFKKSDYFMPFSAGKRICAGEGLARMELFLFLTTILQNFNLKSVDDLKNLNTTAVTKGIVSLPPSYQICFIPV

CYP2C19 = CYP2C19 (Homo sapiens, UniProt P33261); experiment: CYP2C19 inhibition assay, human liver microsomes, omeprazole probe (cocktail); details: Table 6
Chain of CYP2C19 (P33261 whole entry): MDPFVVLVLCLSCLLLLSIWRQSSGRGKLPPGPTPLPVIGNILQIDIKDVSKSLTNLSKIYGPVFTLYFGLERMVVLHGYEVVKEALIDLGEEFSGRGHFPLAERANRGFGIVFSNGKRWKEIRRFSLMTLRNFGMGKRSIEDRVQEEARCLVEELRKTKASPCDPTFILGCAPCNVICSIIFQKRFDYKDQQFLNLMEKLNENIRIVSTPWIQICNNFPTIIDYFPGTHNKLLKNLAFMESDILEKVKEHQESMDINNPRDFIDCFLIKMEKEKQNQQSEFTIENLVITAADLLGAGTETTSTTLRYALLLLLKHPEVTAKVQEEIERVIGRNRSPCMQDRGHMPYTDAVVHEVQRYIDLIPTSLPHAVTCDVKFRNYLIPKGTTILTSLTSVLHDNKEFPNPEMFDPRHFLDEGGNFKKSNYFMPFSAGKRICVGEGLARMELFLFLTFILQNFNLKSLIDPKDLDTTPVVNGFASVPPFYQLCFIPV

UGT2B7 = UGT2B7 (Homo sapiens, UniProt P16662); details: Table 10
Chain of UGT2B7 (P16662 24-529): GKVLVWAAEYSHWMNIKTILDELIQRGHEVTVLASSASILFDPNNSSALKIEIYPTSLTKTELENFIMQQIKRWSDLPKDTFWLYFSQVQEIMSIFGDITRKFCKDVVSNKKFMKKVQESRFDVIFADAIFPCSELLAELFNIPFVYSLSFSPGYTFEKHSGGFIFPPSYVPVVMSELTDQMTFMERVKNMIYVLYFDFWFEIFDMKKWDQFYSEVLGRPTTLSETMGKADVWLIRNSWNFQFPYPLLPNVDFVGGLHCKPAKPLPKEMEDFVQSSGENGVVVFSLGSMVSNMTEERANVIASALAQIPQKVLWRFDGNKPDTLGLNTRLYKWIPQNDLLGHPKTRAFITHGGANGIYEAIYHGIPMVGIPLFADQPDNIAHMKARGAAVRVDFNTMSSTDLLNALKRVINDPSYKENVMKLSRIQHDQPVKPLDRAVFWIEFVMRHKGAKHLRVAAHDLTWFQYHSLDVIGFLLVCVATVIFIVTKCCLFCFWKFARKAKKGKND

UGT1A6 = UGT1A6 (Homo sapiens, UniProt P19224); details: Table 10
Chain of UGT1A6 (P19224 27-532): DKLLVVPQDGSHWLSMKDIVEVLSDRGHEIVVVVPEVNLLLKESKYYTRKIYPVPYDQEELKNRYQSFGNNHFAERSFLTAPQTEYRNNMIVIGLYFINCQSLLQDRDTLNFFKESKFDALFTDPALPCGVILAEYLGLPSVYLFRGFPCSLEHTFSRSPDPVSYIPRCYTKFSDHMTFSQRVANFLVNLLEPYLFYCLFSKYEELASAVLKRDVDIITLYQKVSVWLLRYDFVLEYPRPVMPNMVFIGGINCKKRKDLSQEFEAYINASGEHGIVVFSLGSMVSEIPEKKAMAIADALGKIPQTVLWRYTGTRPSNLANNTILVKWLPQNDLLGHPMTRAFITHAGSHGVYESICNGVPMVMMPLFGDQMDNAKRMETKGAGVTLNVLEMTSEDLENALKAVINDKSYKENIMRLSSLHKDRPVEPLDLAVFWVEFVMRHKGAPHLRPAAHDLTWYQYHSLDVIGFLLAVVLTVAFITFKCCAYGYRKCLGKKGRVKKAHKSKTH

UGT2B15 = UGT2B15 (Homo sapiens, UniProt P54855); details: Table 10
Chain of UGT2B15 (P54855 24-530): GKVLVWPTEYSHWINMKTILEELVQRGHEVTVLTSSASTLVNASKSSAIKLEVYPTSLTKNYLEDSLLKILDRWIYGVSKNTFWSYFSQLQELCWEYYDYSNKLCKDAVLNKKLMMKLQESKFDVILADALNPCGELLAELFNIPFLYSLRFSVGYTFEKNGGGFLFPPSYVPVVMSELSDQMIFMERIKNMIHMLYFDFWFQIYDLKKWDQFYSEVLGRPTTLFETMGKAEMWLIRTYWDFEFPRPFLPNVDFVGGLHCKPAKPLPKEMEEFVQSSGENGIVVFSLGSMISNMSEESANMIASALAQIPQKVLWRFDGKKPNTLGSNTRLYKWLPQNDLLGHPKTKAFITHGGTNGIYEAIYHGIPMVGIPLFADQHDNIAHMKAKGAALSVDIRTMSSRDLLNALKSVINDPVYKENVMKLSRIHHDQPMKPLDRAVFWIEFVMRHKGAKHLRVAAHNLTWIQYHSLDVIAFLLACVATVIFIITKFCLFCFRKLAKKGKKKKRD

UGT1A1 = UGT1A1 (Homo sapiens, UniProt P22309); details: Table 10
Chain of UGT1A1 (P22309 26-533): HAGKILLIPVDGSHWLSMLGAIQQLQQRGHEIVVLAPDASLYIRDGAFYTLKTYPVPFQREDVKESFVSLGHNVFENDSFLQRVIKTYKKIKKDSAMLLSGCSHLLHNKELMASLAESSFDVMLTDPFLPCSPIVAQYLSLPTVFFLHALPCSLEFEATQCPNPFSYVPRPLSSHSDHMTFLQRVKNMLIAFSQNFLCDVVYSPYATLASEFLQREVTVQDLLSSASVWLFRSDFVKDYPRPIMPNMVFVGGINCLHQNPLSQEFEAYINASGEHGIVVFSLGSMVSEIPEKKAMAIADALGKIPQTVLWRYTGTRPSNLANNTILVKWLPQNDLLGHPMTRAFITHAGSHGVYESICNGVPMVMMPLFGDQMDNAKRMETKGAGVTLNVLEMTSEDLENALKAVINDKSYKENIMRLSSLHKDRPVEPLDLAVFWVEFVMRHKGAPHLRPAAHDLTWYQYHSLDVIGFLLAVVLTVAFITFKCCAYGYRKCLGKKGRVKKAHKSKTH

UGT2B17 = UGT2B17 (Homo sapiens, UniProt O75795); details: Table 10
Chain of UGT2B17 (O75795 24-530): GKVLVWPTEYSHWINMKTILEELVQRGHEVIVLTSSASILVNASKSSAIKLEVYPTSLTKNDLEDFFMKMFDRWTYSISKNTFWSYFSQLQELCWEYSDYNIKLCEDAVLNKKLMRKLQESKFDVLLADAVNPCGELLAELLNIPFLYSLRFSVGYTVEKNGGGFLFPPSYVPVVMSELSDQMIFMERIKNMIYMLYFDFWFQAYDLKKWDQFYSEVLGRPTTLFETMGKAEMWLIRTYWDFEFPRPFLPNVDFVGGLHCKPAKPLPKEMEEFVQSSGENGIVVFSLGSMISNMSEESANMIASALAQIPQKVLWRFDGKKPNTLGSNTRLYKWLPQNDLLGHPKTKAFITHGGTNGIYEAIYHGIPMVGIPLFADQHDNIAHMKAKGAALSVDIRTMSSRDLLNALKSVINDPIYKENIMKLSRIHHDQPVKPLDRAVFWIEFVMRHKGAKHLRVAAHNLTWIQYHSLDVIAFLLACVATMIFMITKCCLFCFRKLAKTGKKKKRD

UGT1A4 = UGT1A4 (Homo sapiens, UniProt P22310); details: Table 10
Chain of UGT1A4 (P22310 29-534): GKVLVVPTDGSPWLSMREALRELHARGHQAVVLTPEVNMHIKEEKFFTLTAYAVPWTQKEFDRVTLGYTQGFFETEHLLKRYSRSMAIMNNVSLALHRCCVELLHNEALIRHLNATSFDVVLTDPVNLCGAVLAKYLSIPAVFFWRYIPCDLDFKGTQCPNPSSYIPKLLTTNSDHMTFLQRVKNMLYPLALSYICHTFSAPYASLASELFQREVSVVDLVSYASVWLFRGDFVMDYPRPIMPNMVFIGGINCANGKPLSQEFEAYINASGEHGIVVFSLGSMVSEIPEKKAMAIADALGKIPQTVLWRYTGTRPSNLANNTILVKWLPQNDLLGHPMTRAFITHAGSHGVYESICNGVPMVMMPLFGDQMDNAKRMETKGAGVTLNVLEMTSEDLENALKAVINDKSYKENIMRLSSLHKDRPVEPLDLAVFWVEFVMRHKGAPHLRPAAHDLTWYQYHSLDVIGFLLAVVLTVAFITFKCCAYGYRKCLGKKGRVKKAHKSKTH

[2] = system: at least two (not named) of CYPs 1A2, 2B6, 2C8, 2C9, 2C19, 2D6, 2E1 and 3A4, relative to CYP2A6; experiment: in vitro; details: human
CYP1A2 = target: T3, CYP1A2 (Homo sapiens, UniProt P05177); experiment: CYP1A2 inhibition assay, human liver microsomes, phenacetin probe (cocktail); details: Table 6
T3 sequence (P05177 1-516): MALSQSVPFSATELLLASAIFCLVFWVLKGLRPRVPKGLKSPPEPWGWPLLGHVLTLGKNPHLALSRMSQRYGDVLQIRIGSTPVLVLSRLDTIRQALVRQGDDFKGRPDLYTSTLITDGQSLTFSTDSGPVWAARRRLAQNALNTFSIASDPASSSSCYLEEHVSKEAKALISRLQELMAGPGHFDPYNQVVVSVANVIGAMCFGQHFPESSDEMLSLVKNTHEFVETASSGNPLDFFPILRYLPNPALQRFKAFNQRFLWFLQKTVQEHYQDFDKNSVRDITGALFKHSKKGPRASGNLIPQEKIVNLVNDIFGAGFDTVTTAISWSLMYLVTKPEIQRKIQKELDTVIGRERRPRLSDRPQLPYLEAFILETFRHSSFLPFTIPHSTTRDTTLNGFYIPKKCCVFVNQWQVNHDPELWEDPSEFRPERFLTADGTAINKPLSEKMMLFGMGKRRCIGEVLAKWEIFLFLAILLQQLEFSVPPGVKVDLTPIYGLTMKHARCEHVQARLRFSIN

CYP2A6 [3] = target: T1, CYP2A6; experiment: biochemical; details: IC50 against CYP2A6; human liver microsomes
CYP2B6 = target: T4, CYP2B6 (Homo sapiens, UniProt P20813); details: Table 6
T4 sequence (P20813 1-491): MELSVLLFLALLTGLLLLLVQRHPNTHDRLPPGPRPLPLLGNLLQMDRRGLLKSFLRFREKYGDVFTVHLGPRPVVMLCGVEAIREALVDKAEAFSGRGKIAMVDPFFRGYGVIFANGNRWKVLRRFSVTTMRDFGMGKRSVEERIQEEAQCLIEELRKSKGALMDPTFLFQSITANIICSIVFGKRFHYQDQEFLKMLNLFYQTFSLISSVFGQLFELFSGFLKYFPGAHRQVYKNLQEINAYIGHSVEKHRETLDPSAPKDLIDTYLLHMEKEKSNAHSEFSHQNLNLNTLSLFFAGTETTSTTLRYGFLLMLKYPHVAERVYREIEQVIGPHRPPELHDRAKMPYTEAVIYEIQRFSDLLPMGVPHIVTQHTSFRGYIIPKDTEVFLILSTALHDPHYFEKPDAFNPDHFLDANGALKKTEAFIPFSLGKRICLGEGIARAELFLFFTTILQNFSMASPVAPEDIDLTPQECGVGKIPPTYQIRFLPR

Chain of CYP2D6 (P10635 whole entry): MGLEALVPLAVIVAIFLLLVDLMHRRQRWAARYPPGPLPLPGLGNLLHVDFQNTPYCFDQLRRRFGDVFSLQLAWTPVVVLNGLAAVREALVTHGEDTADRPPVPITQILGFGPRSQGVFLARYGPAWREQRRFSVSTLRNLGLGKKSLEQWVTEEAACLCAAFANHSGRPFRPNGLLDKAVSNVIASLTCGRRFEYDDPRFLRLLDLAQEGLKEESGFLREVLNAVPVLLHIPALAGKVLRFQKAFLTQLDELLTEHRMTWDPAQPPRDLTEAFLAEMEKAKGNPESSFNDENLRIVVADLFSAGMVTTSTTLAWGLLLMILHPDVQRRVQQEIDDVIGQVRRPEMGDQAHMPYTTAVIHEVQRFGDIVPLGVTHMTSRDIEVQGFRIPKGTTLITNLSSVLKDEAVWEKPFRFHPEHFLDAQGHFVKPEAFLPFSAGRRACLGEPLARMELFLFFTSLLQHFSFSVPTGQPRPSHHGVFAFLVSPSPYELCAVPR

COc1ccncc1C#CCN [Compound K, 3-(4-methoxypyridin-3-yl)prop-2-yn-1-amine]
IC50 ratio CYP2D6/CYP2A6 (CYP2D6): >15 | pIC50 (CYP2A6 [1]): 5.47 | IC50 ratio CYP2C8/CYP2A6 (CYP2C8): >15 | IC50 ratio CYP2C19/CYP2A6 (CYP2C19): 2.7 | IC50 ratio UGT2B7/UGT2B10 (UGT2B7): 13 | IC50 ratio UGT1A6/UGT2B10 (UGT1A6): 29 | IC50 ratio UGT2B15/UGT2B10 (UGT2B15): 30 | IC50 ratio UGT1A1/UGT2B10 (UGT1A1): 4 | IC50 ratio UGT2B17/UGT2B10 (UGT2B17): 26 | IC50 ratio UGT1A4/UGT2B10 (UGT1A4): 7 | selectivity ratio at 15 min [2]: < 5 | IC50 ratio CYP1A2/CYP2A6 (CYP1A2): 7.4 | pIC50 (CYP2A6 [3]): > 5.00 | IC50 ratio CYP2B6/CYP2A6 (CYP2B6): 3.2

— patent US20210276987A1, “PHARMACEUTICAL AGENTS FOR USE IN SMOKING AND TOBACCO CESSATION” (Washington State University, priority 2018, published 2021)
